Data: patent US4929751A, “Vinyl tricarbonyl compounds and methods of making the same” (Yale University, priority 1987, dated 1990)
Where two headings read alike, the source gives them in different places.

Tests used:
Assay in all cases: growth inhibition of tumor cell line
Format in all cases: cell-based
[1] = tested on: A549 (nonsmall cell lung cancer); conditions: Homo sapiens, logarithm of the concentration inhibiting growth by 50%
Text: (§1) t-Butyl 2,3-dioxo-pent-4-enoate hydrate (A) was contacted with various cell lines as indicated on Table 1 hereinbelow in the column designated as "CELL" or "TUMOR". […]
(§2) Table 1 reports and illustrates the results obtained by testing t-butyl 2,3-dioxo-pent-4-enoate hydrate. The concentration of this compound found to inhibit the growth of each cell line listed under "CELL" by 50% is reported under "LOG(IC50)" as the logarithm of the concentration. The units of concentration are either molarity in which case an "M" is shown in parentheses next to the LOG(IC50) label, or micrograms per ml, in which case a "W" (for weight) is shown in parenthesis. The cell line names are grouped by disease type and the disease type names are listed on the far left.

[2] = tested on: SNB-19 (central nervous system); conditions: Homo sapiens
Text: as §1, §2

[3] = tested on: H23 (nonsmall cell lung cancer)
Text: as §1, §2

[4] = tested on: OVCAR-4 (ovarian); conditions: Homo sapiens, logarithm of the concentration inhibiting growth by 50%
Text: as §1, §2

[5] = tested on: UO-31 (renal); conditions: Homo sapiens, logarithm of the concentration inhibiting growth by 50%
Text: as §1, §2

[6] = tested on: K562 (leukemia); conditions: Homo sapiens
Text: as §1, §2

[7] = tested on: H358 (nonsmall cell lung cancer); conditions: Homo sapiens, NCI-H358
Text: as §1, §2

[8] = tested on: OVCAR-3 (ovarian); conditions: Homo sapiens
Text: as §1, §2

[9] = tested on: H520 (nonsmall cell lung cancer); conditions: Homo sapiens, NCI-H520
Text: as §1, §2

[10] = tested on: P388/ADR; conditions: Mus musculus
Text: as §1, §2

[11] = tested on: H322 (nonsmall cell lung cancer); conditions: NCI-H322
Text: as §1, §2

[12] = tested on: SK-MEL5 (melanoma); conditions: Homo sapiens
Text: as §1, §2

[13] = tested on: MCF-7 (breast); conditions: Homo sapiens
Text: as §1, §2

[14] = tested on: EKV-X (nonsmall cell lung cancer); conditions: Homo sapiens, EKVX
Text: as §1, §2

[15] = tested on: A2780 (ovarian); conditions: Homo sapiens
Text: as §1, §2

[16] = tested on: DMS114 (small cell lung cancer); conditions: Homo sapiens
Text: as §1, §2

[17] = tested on: H146 (small cell lung cancer); conditions: Homo sapiens, NCI-H146
Text: as §1, §2

[18] = tested on: H125 (nonsmall cell lung cancer); conditions: Homo sapiens, NCI-H125
Text: as §1, §2

[19] = tested on: DLD-1 (colon); conditions: Homo sapiens
Text: as §1, §2

[20] = tested on: P388; conditions: Mus musculus
Text: as §1, §2

[21] = tested on: TE-671 (central nervous system); conditions: Homo sapiens
Text: as §1, §2

[22] = tested on: SK-MEL2 (melanoma); conditions: Homo sapiens
Text: as §1, §2

[23] = tested on: H82 (small cell lung cancer)
Text: as §1, §2

[24] = tested on: CCRF-CEM (leukemia); conditions: Homo sapiens
Text: as §1, §2

[25] = tested on: H69 (small cell lung cancer)
Text: as §1, §2

[26] = tested on: H460 (nonsmall cell lung cancer); conditions: Homo sapiens, NCI-H460, logarithm of the concentration inhibiting growth by 50%
Text: as §1, §2

[27] = tested on: LOVO (colon); conditions: Homo sapiens
Text: as §1, §2

[28] = logarithm of the concentration inhibiting growth by 50%, read-out: LOG(IC50) (converted)

IC50 [1]: > 251 µM
IC90 [2]: 243 µM
IC50 [2, 28]: 100 µM
IC50 ([2]; read-out: IC-50 MEAN): 95.2 µM
IC50 ([3]; H23, logarithm of the concentration inhibiting growth by 50%, read-out: LOG(IC50) (converted)): 50.1 µM
IC90 ([3]; Homo sapiens, NCI-H23): 197 µM
IC50 ([3]; Homo sapiens, NCI-H23, read-out: IC-50 MEAN): 52.7 µM
IC50 [4]: 251 µM
IC50 [5]: > 251 µM
IC90 [6]: 225 µM
IC50 [6, 28]: 100 µM
IC50 ([6]; read-out: IC-50 MEAN): 90.3 µM
IC50 ([7]; H358, logarithm of the concentration inhibiting growth by 50%, read-out: LOG(IC50) (converted)): 158 µM
IC50 ([7]; read-out: IC-50 MEAN): 155 µM
IC90 [8]: 270 µM
IC50 [8, 28]: 100 µM
IC50 ([8]; read-out: IC-50 MEAN): 96.6 µM
IC50 ([9]; H520, logarithm of the concentration inhibiting growth by 50%, read-out: LOG(IC50) (converted)): 100 µM
IC50 ([9]; read-out: IC-50 MEAN): 105 µM
IC90 [10]: 244 µM
IC50 ([10]; P388/AD, logarithm of the concentration inhibiting growth by 50%, read-out: LOG(IC50) (converted)): 126 µM
IC50 ([10]; read-out: IC-50 MEAN): 118 µM
IC90 [11]: 246 µM
IC50 ([11]; H322, logarithm of the concentration inhibiting growth by 50%, read-out: LOG(IC50) (converted)): 50.1 µM
IC50 ([11]; read-out: IC-50 MEAN): 48.7 µM
IC90 ([12]; SK-MEL-5): 222 µM
IC50 ([12]; SK-MEL-5, logarithm of the concentration inhibiting growth by 50%, read-out: LOG(IC50) (converted)): 63.1 µM
IC50 ([12]; SK-MEL-5, read-out: IC-50 MEAN): 74.2 µM
IC90 ([13]; MCF7): 232 µM
IC50 ([13]; MCF7, logarithm of the concentration inhibiting growth by 50%, read-out: LOG(IC50) (converted)): 100 µM
IC50 ([13]; MCF7, read-out: IC-50 MEAN): 98.1 µM
IC50 [14, 28]: 200 µM
IC50 ([14]; read-out: IC-50 MEAN): 226 µM
IC90 [15]: 249 µM
IC50 [15, 28]: 63.1 µM
IC50 ([15]; read-out: IC-50 MEAN): 70.3 µM
IC90 ([16]; DMS-114): 264 µM
IC50 ([16]; DMS-114, logarithm of the concentration inhibiting growth by 50%, read-out: LOG(IC50) (converted)): 126 µM
IC50 ([16]; DMS-114, read-out: IC-50 MEAN): 141 µM
IC50 ([17]; H146, logarithm of the concentration inhibiting growth by 50%, read-out: LOG(IC50) (converted)): 126 µM
IC50 ([17]; read-out: IC-50 MEAN): 124 µM
IC50 ([18]; H125, logarithm of the concentration inhibiting growth by 50%, read-out: LOG(IC50) (converted)): 50.1 µM
IC50 ([18]; read-out: IC-50 MEAN): 73.3 µM
IC90 [19]: 187 µM
IC50 [19, 28]: 39.8 µM
IC50 ([19]; read-out: IC-50 MEAN): 38.4 µM
IC90 [20]: 248 µM
IC50 [20, 28]: 100 µM
IC50 ([20]; read-out: IC-50 MEAN): 114 µM
IC90 [21]: 231 µM
IC50 [21, 28]: 126 µM
IC50 ([21]; read-out: IC-50 MEAN): 114 µM
IC90 ([22]; SK-MEL-2): 174 µM
IC50 ([22]; SK-MEL-2, logarithm of the concentration inhibiting growth by 50%, read-out: LOG(IC50) (converted)): 79.4 µM
IC50 ([22]; SK-MEL-2, read-out: IC-50 MEAN): 73.5 µM
IC50 ([23]; H82, logarithm of the concentration inhibiting growth by 50%, read-out: LOG(IC50) (converted)): 39.8 µM
IC90 ([23]; Homo sapiens, NCI-H82): 172 µM
IC50 ([23]; Homo sapiens, NCI-H82, read-out: IC-50 MEAN): 36.7 µM
IC50 ([24]; CCRF-CE, logarithm of the concentration inhibiting growth by 50%, read-out: LOG(IC50) (converted)): 7.94 µM
IC50 ([24]; read-out: IC-50 MEAN): 8.05 µM
IC50 ([25]; H69, logarithm of the concentration inhibiting growth by 50%, read-out: LOG(IC50) (converted)): 100 µM
IC90 ([25]; Homo sapiens, NCI-H69): 269 µM
IC50 ([25]; Homo sapiens, NCI-H69, read-out: IC-50 MEAN): 95.5 µM
IC50 [26]: > 251 µM
IC90 ([27]; LoVo): 262 µM
IC50 ([27]; LoVo, read-out: IC-50 MEAN): 96.6 µM
IC50 ([27]; LOVO, logarithm of the concentration inhibiting growth by 50%, read-out: LOG(IC50) (converted)): 100 µM
SMILES: C=CC(=O)C(O)(O)C(=O)OC(C)(C)C [t-butyl 2,3-dioxo-pent-4-enoate hydrate]
